From article PMC7926793, “Synthesis and Biological Evaluation of 1-(Diarylmethyl)-1H-1,2,4-triazoles and 1-(Diarylmethyl)-1H-imidazoles as a Novel Class of Anti-Mitotic Agent for Activity in Breast Cancer” (Pharmaceuticals, 2021)

Columns and labels:
[1] = tested on: tubulin (microtubule network) in MCF-7 cells; assay: immunofluorescence confocal microscopy of microtubule network; assay type: cell-based, human; conditions: 10 μM, 16 h
Protocol: Confocal microscopy was used to study the effects of drug treatment on MCF-7 cytoskeleton. For immunofluorescence, MCF-7 cells were seeded at 1 × 10^5 cells/mL on eight chamber glass slides (BD Biosciences). […] Following treatment, cells were gently washed in PBS, fixed for 20 min with 4% paraformaldehyde in PBS, and permeabilised in 0.5% Triton X-100. Following washes in PBS containing 0.1% Tween (PBST), cells were blocked in 5% bovine serum albumin diluted in PBST. […] Following washes in PBST, the cells were mounted in Ultra Cruz Mounting Media (Santa Cruz Biotechnology, Santa Cruz, CA) containing 4,6-diamino-2-phenolindol dihydrochloride (DAPI). Images were captured by Leica SP8 confocal microscopy with Leica application suite X software. All images in each experiment were collected on the same day using identical parameters. Experiments were performed on three independent occasions.

[2] = tested on: purified bovine brain tubulin; assay: tubulin polymerisation assay; assay type: biochemical; conditions: 10 μM
Protocol: The assembly of purified bovine tubulin was monitored using a kit, BK006, purchased from Cytoskeleton Inc. (Denver, CO, USA). […] Light is scattered proportionally to the concentration of polymerised microtubules in the assay. Therefore, tubulin assembly was monitored turbidimetrically at 340 nm in a Spectramax 340 PC spectrophotometer (Molecular Devices, Sunnyvale, CA, USA). The absorbance was measured at 30 s intervals for 60 min.

MCF-7 cells = assay: Annexin V/PI apoptotic assay; assay type: cell-based, human; conditions: 48 h
Protocol: (§1) Apoptotic cell death was detected by flow cytometry using Annexin V and propidium iodide (PI). MCF-7 and MDA-MB-231 cells were seeded in 6-well plates at a density of 1 × 10^5 cells/mL (3 mL) and treated with either vehicle (0.1% (v/v) EtOH), Phenstatin (7a), or 21l at different concentrations for the selected time. Then, cells were harvested and prepared for flow cytometric analysis. […] Then, cells were washed once in binding buffer and then re-suspended in PI-containing binding buffer (1:1000). […] Four populations are produced during the assay: Annexin V and PI negative (Q4, healthy cells), Annexin V positive and PI negative (Q3, early apoptosis), Annexin V and PI positive (Q2, late apoptosis), and Annexin V negative and PI positive (Q1, necrosis).

MDA-MB-231 cells = assay: Annexin V/PI apoptotic assay; assay type: cell-based, human; conditions: 48 h
Protocol: as §1

PARP = assay: Western blot in MCF-7 cells; assay type: cell-based, human; conditions: MCF-7, 1 μM, vs vehicle
Protocol: (§2) MCF-7 cells were seeded at a density of 1 × 10^5 cells/flask (10 mL) in T25 flasks. After 48 h, whole cell lysates were prepared from untreated cells or cells treated with vehicle control (EtOH, 0.1% v/v) or selected compound 21l or 24 (1 μM). MCF-7 cells were harvested in Radioimmunoprecipitation assay buffer (RIPA) buffer supplemented with protease inhibitors (Roche Diagnostics), phosphatase inhibitor cocktail 2 (Sigma-Aldrich), and phosphatase inhibitor cocktail 3 (Sigma-Aldrich). Equal quantities of protein (as determined by a bicinchoninic acid assay (BCA assay) were resolved by SDS-PAGE (12%) followed by transfer to polyvinylidene fluoride PVDF membranes. Membranes were blocked in 5% bovine serum albumin/Tris-buffered saline with 0.1% Tween®20 Detergent (TBST) for 1 h. Membranes were incubated in the relevant primary antibodies at 4 °C overnight, washed with TBST, and incubated in horseradish peroxidase-conjugated secondary antibody for 1 h at rt and washed again. Western blot analysis was performed as described above using antibodies directed against Mcl-1 (1:1000) (Millipore), Bcl-2 [1:500] (Millipore), and PARP followed by incubation with a horseradish peroxidase-conjugated anti-mouse antibody (1:2000) (Promega, Madison, WI, USA). All blots were probed with anti-glyceraldehyde 3-phosphate dehydrogenase (GAPDH) antibody (1:5000) (Millipore) to confirm equal loading. Proteins were detected using enhanced chemiluminescent Western blot detection (Clarity Western ECL substrate) (Bio Rad) on the ChemiDoc MP System (Bio Rad). Experiments were performed on three independent occasions.

Bcl-2 = assay: Western blot in MCF-7 cells; assay type: cell-based, human; conditions: MCF-7, 1 μM
Protocol: as §2

Mcl-1 = assay: Western blot in MCF-7 cells; assay type: cell-based, human; conditions: MCF-7, 1 μM
Protocol: as §2

[3] = HPLC stability study in phosphate buffers; assay type: physicochemical
Protocol: Stability studies for compounds 21l and 24 were performed by analytical HPLC using a Symmetry® column (C18, […], 4.6 × 150 mm), a Waters 2487 Dual Wavelength Absorbance detector, a Waters 1525 binary HPLC pump, and a Waters 717 plus Autosampler (Waters Corporation, Milford, MA, USA). Samples were detected at λ 254 nm using acetonitrile (70%)/water (30%) as the mobile phase over 15 min and a flow rate of 1 mL/min. Stock solutions of the compounds are prepared using 10 mg of compounds 21l and 24 in 10 mL of mobile phase (1 mg/mL). Phosphate buffers at the desired pH values (4, 7.4, and 9) were prepared following the British Pharmacopoeia monograph 2020. Then, 30 μL of stock solution was diluted with 1 mL of appropriate buffer, shaken, and injected immediately. Samples were withdrawn and analysed at time intervals of t = 0 min, 5 min, 30 min, 60 min, and hourly for 24 h.

COc1ccc(C(c2cc(OC)c(OC)c(OC)c2)n2ccnc2)cc1O (stereo not drawn) [21l, 5-((1H-Imidazol-1-yl)(3,4,5-Trimethoxyphenyl)Methyl)-2-Methoxyphenol]
effect on microtubule network of MCF-7 cells [1]: disorganised microtubule networks
effect on tubulin polymerisation and assembly [2]: significant inhibition of tubulin polymerisation
fold reduction of the polymer mass compared to the vehicle [2]: 1.34 fold
Vmax value of tubulin polymerisation ([2]; 60 min): 2.84 ± 0.10 mOD/min
viability at 0.1 µM (MCF-7 cells; Homo sapiens, MCF7, MCF-7, 0.1 μM, Figure 9A, read-out: Viable): 85.4%
viability at 0.5 µM (MCF-7 cells; Homo sapiens, MCF7, MCF-7, 0.5 μM, Figure 9A, read-out: Viable): 81.9%
viability at 1 µM (MCF-7 cells; Homo sapiens, MCF7, MCF-7, 1 μM, Figure 9A): 79.4%
Annexin V-stained positive cells (total apoptotic cells) (MCF-7 cells; MCF-7, 0.1 μM): 14.1%
Annexin V-stained positive cells (total apoptotic cells) (MCF-7 cells; MCF-7, 0.5 μM): 17.5%
Annexin V-stained positive cells (total apoptotic cells) (MCF-7 cells; MCF-7, 1 μM): 19.3%
viability at 0.1 µM (MDA-MB-231 cells; Homo sapiens, MDA-MB-231, 0.1 μM, Figure 9B, read-out: Viable): 95.3%
viability at 0.5 µM (MDA-MB-231 cells; Homo sapiens, MDA-MB-231, 0.5 μM, Figure 9B, read-out: Viable): 93.1%
viability at 1 µM (MDA-MB-231 cells; Homo sapiens, MDA-MB-231, 1 μM, Figure 9B): 91.5%
total apoptotic cells (MDA-MB-231 cells; MDA-MB-231, 0.1 μM): 3.6%
total apoptotic cells (MDA-MB-231 cells; MDA-MB-231, 0.5 μM): 5.9%
total apoptotic cells (MDA-MB-231 cells; MDA-MB-231, 1.0 μM): 6.9%
expression of full-length PARP (116 kDa) (PARP): significant reduction
expression level of Bcl-2 (Bcl-2): no change
expression level of Mcl-1 (Mcl-1): no change
compound remaining (HPLC) ([3]; pH 4, 24 h): 90%

COc1ccc(C(c2cc(OC)c(OC)c(OC)c2)n2cncn2)cc1O (stereo not drawn) [19e, 5-((1H-1,2,4-Triazol-1-yl)(3,4,5-Trimethoxyphenyl)methyl)-2-Methoxyphenol]
effect on microtubule network of MCF-7 cells [1]: disorganised microtubule networks

COc1ccc(C(c2cc(OC)c(OC)c(OC)c2)n2nccn2)cc1O (stereo not drawn) [compound 24]
expression of full-length PARP (116 kDa) (PARP): significant reduction
expression level of Bcl-2 (Bcl-2): no change
expression level of Mcl-1 (Mcl-1): no change
compound remaining (HPLC) ([3]; pH 4, 24 h): 65%
compound remaining (HPLC) ([3]; pH 7.4, 24 h): 50%
compound remaining (HPLC) ([3]; pH 9, 24 h): 60%
